The text below walks through data of ChEMBL document CHEMBL5728053, “Dihydropyrrolopyridine inhibitors of ROR-gamma” (2020).

The target in this experiment is T1, Nuclear receptor ROR-gamma (Homo sapiens, UniProt P51449).
T1 sequence (P51449 whole entry): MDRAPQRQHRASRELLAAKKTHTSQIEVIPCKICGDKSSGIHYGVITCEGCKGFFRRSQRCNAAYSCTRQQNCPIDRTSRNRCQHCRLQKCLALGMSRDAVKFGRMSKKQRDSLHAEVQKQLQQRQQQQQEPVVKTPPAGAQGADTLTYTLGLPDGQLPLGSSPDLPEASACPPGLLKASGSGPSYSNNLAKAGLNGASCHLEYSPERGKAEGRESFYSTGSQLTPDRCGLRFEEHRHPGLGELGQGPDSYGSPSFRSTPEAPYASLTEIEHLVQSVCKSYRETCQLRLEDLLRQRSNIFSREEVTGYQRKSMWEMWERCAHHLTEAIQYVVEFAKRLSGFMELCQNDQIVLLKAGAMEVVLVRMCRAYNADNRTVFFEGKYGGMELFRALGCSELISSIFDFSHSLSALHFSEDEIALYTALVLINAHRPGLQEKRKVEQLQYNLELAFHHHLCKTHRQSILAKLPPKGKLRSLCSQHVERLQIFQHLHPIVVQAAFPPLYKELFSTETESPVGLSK
The experiment in a line: RORgammat 5xRORE Assay in Jurkat Cells (Assay 2) : Compounds of the present invention were tested for RORγ inverse agonist activity in a cell-based, transcriptional activity assay. […] (Promega, Cat. # N1021) using KpnI and HindIII restriction sites. […] Luciferase activity in the conditioned supernatants was determined with NanoGlo® assay reagents (Promega, Cat. # N1130).

Take `CCS(=O)(=O)c1ccc(CNC(=O)c2cnc3c(c2)C(=O)N(Cc2ccc(Cl)cc2)[C@H]3C(C)C)cc1`: the half-maximal inhibitory concentration (IC50) fell in the range of 100 to 1000 nM.
